Reference: ChEMBL document CHEMBL2401627, “Synthesis of some novel chalcones, flavanones and flavones and evaluation of their anti-inflammatory activity” (Eur J Med Chem, 2013)

Legend:
Rattus norvegicus [1] = experiment: Antiinflammatory activity in Wistar rat assessed as inhibition of carrageenan-induced hind paw oedema at 20 mg/kg, po administered 30 mins before carrageenan challenge measured after 5 hrs by plethysmometer relative to control; format: functional
Rattus norvegicus [2] = experiment: Antiinflammatory activity in Wistar rat assessed as inhibition of carrageenan-induced hind paw oedema at 20 mg/kg, po administered 30 mins before carrageenan challenge measured after 3 hrs by plethysmometer relative to control; format: functional
Rattus norvegicus [3] = experiment: Gastrointestinal toxicity in Wistar rat assessed as ulcerogenic index at 60 mg/kg, po after 6 hrs relative to control; format: organism-based; set-up: dose 60 mg/kg, route oral; details: in vivo
RAW264.7 [4] = experiment: Antiinflammatory activity in mouse RAW264.7 cells assessed as inhibition of LPS-induced TNFalpha production at 10 uM treated 30 mins before LPS challenge measured after 3 hrs by ELISA relative to control; format: functional
RAW264.7 [5] = experiment: Antiinflammatory activity in mouse RAW264.7 cells assessed as inhibition of LPS-induced TNFalpha production at 10 uM treated 30 mins before LPS challenge measured after 2 hrs by ELISA relative to control; format: functional
RAW264.7 [6] = experiment: Antiinflammatory activity in mouse RAW264.7 cells assessed as inhibition of LPS-induced TNFalpha production at 10 uM treated 30 mins before LPS challenge measured after 1 hr by ELISA relative to control; format: functional
RAW264.7 [7] = experiment: Antiinflammatory activity in mouse RAW264.7 cells assessed as inhibition of LPS-induced TNFalpha production at 5 uM treated 30 mins before LPS challenge measured after 3 hrs by ELISA relative to control; format: functional
RAW264.7 [8] = experiment: Antiinflammatory activity in mouse RAW264.7 cells assessed as inhibition of LPS-induced TNFalpha production at 5 uM treated 30 mins before LPS challenge measured after 2 hrs by ELISA relative to control; format: functional
RAW264.7 [9] = experiment: Antiinflammatory activity in mouse RAW264.7 cells assessed as inhibition of LPS-induced TNFalpha production at 5 uM treated 30 mins before LPS challenge measured after 1 hr by ELISA relative to control; format: functional
[10] = molecular target: T1, Prostaglandin G/H synthase 1 (Ovis aries, UniProt P05979); experiment: Inhibition of ovine COX1
T1 sequence (P05979 whole entry): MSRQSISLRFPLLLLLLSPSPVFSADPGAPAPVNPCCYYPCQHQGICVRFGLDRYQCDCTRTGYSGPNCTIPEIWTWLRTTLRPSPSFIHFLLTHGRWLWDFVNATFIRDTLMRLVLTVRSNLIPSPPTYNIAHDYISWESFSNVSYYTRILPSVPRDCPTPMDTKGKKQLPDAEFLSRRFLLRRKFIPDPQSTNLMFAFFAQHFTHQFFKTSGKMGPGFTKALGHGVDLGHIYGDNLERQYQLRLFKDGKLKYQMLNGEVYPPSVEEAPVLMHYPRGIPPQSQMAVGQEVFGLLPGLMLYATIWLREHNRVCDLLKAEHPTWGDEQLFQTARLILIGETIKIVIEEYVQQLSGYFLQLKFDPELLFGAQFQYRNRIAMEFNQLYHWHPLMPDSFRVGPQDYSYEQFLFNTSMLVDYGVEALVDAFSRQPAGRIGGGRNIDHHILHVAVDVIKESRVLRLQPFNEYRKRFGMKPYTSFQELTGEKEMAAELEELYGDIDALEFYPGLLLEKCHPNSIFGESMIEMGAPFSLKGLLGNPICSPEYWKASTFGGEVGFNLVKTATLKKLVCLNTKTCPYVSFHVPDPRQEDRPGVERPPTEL

## COc1cc(/C=C/C(=O)c2c(OC)cc(C)c(Cl)c2C)ccc1O
Rattus norvegicus [1]
  inhibition in vivo at 20 mg/kg: 25%
Rattus norvegicus [2]
  inhibition in vivo at 20 mg/kg: 22.2%

## Cc1cc(O)c(C(=O)/C=C/c2ccccc2)c(C)c1Cl
Rattus norvegicus [3]
  UI: 0.4 mm
Rattus norvegicus [1]
  inhibition in vivo at 20 mg/kg: 82%
Rattus norvegicus [2]
  inhibition in vivo at 20 mg/kg: 70%

## COc1ccc(/C=C/C(=O)c2c(O)cc(C)c(Cl)c2C)cc1
Rattus norvegicus [1]
  inhibition in vivo at 20 mg/kg: 55%
Rattus norvegicus [2]
  inhibition in vivo at 20 mg/kg: 50%

## Cc1cc(O)c(C(=O)/C=C/c2ccc(Cl)cc2)c(C)c1Cl
Rattus norvegicus [1]
  inhibition in vivo at 20 mg/kg: 36%
Rattus norvegicus [2]
  inhibition in vivo at 20 mg/kg: 41.6%

## Cc1cc(O)c(C(=O)/C=C/c2ccccc2Cl)c(C)c1Cl
Rattus norvegicus [1]
  inhibition in vivo at 20 mg/kg: 70%
Rattus norvegicus [2]
  inhibition in vivo at 20 mg/kg: 33%

## COc1ccc(/C=C/C(=O)c2c(O)cc(C)c(Cl)c2C)cc1OC
Rattus norvegicus [3]
  UI: 0.6 mm
Rattus norvegicus [1]
  inhibition in vivo at 20 mg/kg: 82%
Rattus norvegicus [2]
  inhibition in vivo at 20 mg/kg: 71%

## COc1cc(/C=C/C(=O)c2c(O)cc(C)c(Cl)c2C)cc(OC)c1OC
RAW264.7 [4]
  Activity: 88.83 pg/mL
RAW264.7 [5]
  Activity: 53.77 pg/mL
RAW264.7 [6]
  Activity: 34.99 pg/mL
RAW264.7 [7]
  Activity: 104.78 pg/mL
RAW264.7 [8]
  Activity: 79.77 pg/mL
RAW264.7 [9]
  Activity: 49.42 pg/mL
[10]
  IC50: 87.5 µM
Rattus norvegicus [3]
  UI: 0.4 mm
Rattus norvegicus [1]
  inhibition in vivo at 20 mg/kg: 90.6%
Rattus norvegicus [2]
  inhibition in vivo at 20 mg/kg: 91.7%

## Cc1cc(O)c(C(=O)/C=C/c2cccc(O)c2)c(C)c1Cl
Rattus norvegicus [3]
  UI: 0.4 mm
Rattus norvegicus [1]
  inhibition in vivo at 20 mg/kg: 71%
Rattus norvegicus [2]
  inhibition in vivo at 20 mg/kg: 83%

## Cc1cc(O)c(C(=O)/C=C/c2ccccc2[N+](=O)[O-])c(C)c1Cl
Rattus norvegicus [1]
  inhibition in vivo at 20 mg/kg: 14.3%
Rattus norvegicus [2]
  inhibition in vivo at 20 mg/kg: 26.3%

## COc1cc(C)c(Cl)c(C)c1C(=O)/C=C/c1ccccc1
Rattus norvegicus [1]
  inhibition in vivo at 20 mg/kg: 75%
Rattus norvegicus [2]
  inhibition in vivo at 20 mg/kg: 69.2%

## COc1ccc(/C=C/C(=O)c2c(OC)cc(C)c(Cl)c2C)cc1
Rattus norvegicus [1]
  inhibition in vivo at 20 mg/kg: 12.5%
Rattus norvegicus [2]
  inhibition in vivo at 20 mg/kg: 16.7%

## COc1cc(C)c(Cl)c(C)c1C(=O)/C=C/c1ccc(Cl)cc1
Rattus norvegicus [1]
  inhibition in vivo at 20 mg/kg: 12.5%
Rattus norvegicus [2]
  inhibition in vivo at 20 mg/kg: 22.2%

## COc1cc(C)c(Cl)c(C)c1C(=O)/C=C/c1ccccc1Cl
Rattus norvegicus [1]
  inhibition in vivo at 20 mg/kg: 12.5%
Rattus norvegicus [2]
  inhibition in vivo at 20 mg/kg: 27.8%

## COc1ccc(/C=C/C(=O)c2c(OC)cc(C)c(Cl)c2C)cc1OC
Rattus norvegicus [3]
  UI: 0.16 mm
Rattus norvegicus [1]
  inhibition in vivo at 20 mg/kg: 62%
Rattus norvegicus [2]
  inhibition in vivo at 20 mg/kg: 81%

## COc1cc(/C=C/C(=O)c2c(OC)cc(C)c(Cl)c2C)cc(OC)c1OC
Rattus norvegicus [3]
  UI: 0.16 mm
Rattus norvegicus [1]
  inhibition in vivo at 20 mg/kg: 62.5%
Rattus norvegicus [2]
  inhibition in vivo at 20 mg/kg: 76.9%

## COc1cc(C)c(Cl)c(C)c1C(=O)/C=C/c1cccc(O)c1
Rattus norvegicus [3]
  UI: 0.33 mm
Rattus norvegicus [1]
  inhibition in vivo at 20 mg/kg: 75%
Rattus norvegicus [2]
  inhibition in vivo at 20 mg/kg: 80.8%

## COc1cc(C)c(Cl)c(C)c1C(=O)/C=C/c1ccccc1O
Rattus norvegicus [1]
  inhibition in vivo at 20 mg/kg: 50%
Rattus norvegicus [2]
  inhibition in vivo at 20 mg/kg: 33.3%

## COc1cc(C)c(Cl)c(C)c1C(=O)/C=C/c1cccc([N+](=O)[O-])c1
Rattus norvegicus [1]
  inhibition in vivo at 20 mg/kg: 22.2%
Rattus norvegicus [2]
  inhibition in vivo at 20 mg/kg: 68.2%

## COc1cc(C)c(Cl)c(C)c1C(=O)/C=C/c1ccc(N(C)C)cc1
Rattus norvegicus [1]
  inhibition in vivo at 20 mg/kg: 18.8%
Rattus norvegicus [2]
  inhibition in vivo at 20 mg/kg: 22.2%

## COc1cc(C)c(Cl)c(C)c1C(=O)/C=C/c1ccccc1[N+](=O)[O-]
Rattus norvegicus [1]
  inhibition in vivo at 20 mg/kg: 66.7%
Rattus norvegicus [2]
  inhibition in vivo at 20 mg/kg: 63.6%

## Cc1cc2c(c(C)c1Cl)C(=O)CC(c1ccccc1)O2 (stereo not drawn)
Rattus norvegicus [1]
  inhibition in vivo at 20 mg/kg: 27.7%
Rattus norvegicus [2]
  inhibition in vivo at 20 mg/kg: 43.3%

## COc1ccc(C2CC(=O)c3c(cc(C)c(Cl)c3C)O2)cc1 (stereo not drawn)
Rattus norvegicus [1]
  inhibition in vivo at 20 mg/kg: 70%
Rattus norvegicus [2]
  inhibition in vivo at 20 mg/kg: 51.1%

## Cc1cc2c(c(C)c1Cl)C(=O)CC(c1ccc(Cl)cc1)O2 (stereo not drawn)
Rattus norvegicus [1]
  inhibition in vivo at 20 mg/kg: 70%
Rattus norvegicus [2]
  inhibition in vivo at 20 mg/kg: 37.8%

## Cc1cc2c(c(C)c1Cl)C(=O)CC(c1ccccc1Cl)O2 (stereo not drawn)
Rattus norvegicus [1]
  inhibition in vivo at 20 mg/kg: 56%
Rattus norvegicus [2]
  inhibition in vivo at 20 mg/kg: 22.2%

## COc1ccc(C2CC(=O)c3c(cc(C)c(Cl)c3C)O2)cc1OC (stereo not drawn)
Rattus norvegicus [1]
  inhibition in vivo at 20 mg/kg: 41.7%
Rattus norvegicus [2]
  inhibition in vivo at 20 mg/kg: 48.5%

## COc1cc(C2CC(=O)c3c(cc(C)c(Cl)c3C)O2)cc(OC)c1OC (stereo not drawn)
Rattus norvegicus [1]
  inhibition in vivo at 20 mg/kg: 44.4%
Rattus norvegicus [2]
  inhibition in vivo at 20 mg/kg: 48.5%

## Cc1cc2c(c(C)c1Cl)C(=O)CC(c1cccc(O)c1)O2 (stereo not drawn)
Rattus norvegicus [1]
  inhibition in vivo at 20 mg/kg: 44.4%
Rattus norvegicus [2]
  inhibition in vivo at 20 mg/kg: 46.4%

## Cc1cc2c(c(C)c1Cl)C(=O)CC(c1ccccc1O)O2 (stereo not drawn)
Rattus norvegicus [1]
  inhibition in vivo at 20 mg/kg: 75%
Rattus norvegicus [2]
  inhibition in vivo at 20 mg/kg: 58.8%

## Cc1cc2c(c(C)c1Cl)C(=O)CC(c1cccc([N+](=O)[O-])c1)O2 (stereo not drawn)
Rattus norvegicus [1]
  inhibition in vivo at 20 mg/kg: 51.4%
Rattus norvegicus [2]
  inhibition in vivo at 20 mg/kg: 53.6%

## Cc1cc2c(c(C)c1Cl)C(=O)CC(c1ccc(N(C)C)cc1)O2 (stereo not drawn)
Rattus norvegicus [3]
  UI: 0 mm
Rattus norvegicus [1]
  inhibition in vivo at 20 mg/kg: 81%
Rattus norvegicus [2]
  inhibition in vivo at 20 mg/kg: 82%

## COc1cc(C2CC(=O)c3c(cc(C)c(Cl)c3C)O2)ccc1O (stereo not drawn)
Rattus norvegicus [1]
  inhibition in vivo at 20 mg/kg: 66%
Rattus norvegicus [2]
  inhibition in vivo at 20 mg/kg: 44.4%

## Cc1cc2oc(-c3ccccc3)cc(=O)c2c(C)c1Cl
Rattus norvegicus [1]
  inhibition in vivo at 20 mg/kg: 16.2%
Rattus norvegicus [2]
  inhibition in vivo at 20 mg/kg: 26.3%

## COc1ccc(-c2cc(=O)c3c(C)c(Cl)c(C)cc3o2)cc1
Rattus norvegicus [1]
  inhibition in vivo at 20 mg/kg: 28.6%
Rattus norvegicus [2]
  inhibition in vivo at 20 mg/kg: 58%

## Cc1cc2oc(-c3ccc(Cl)cc3)cc(=O)c2c(C)c1Cl
Rattus norvegicus [1]
  inhibition in vivo at 20 mg/kg: 22.9%
Rattus norvegicus [2]
  inhibition in vivo at 20 mg/kg: 26.1%

## Cc1cc2oc(-c3ccccc3Cl)cc(=O)c2c(C)c1Cl
Rattus norvegicus [1]
  inhibition in vivo at 20 mg/kg: 57.1%
Rattus norvegicus [2]
  inhibition in vivo at 20 mg/kg: 36.8%

## COc1ccc(-c2cc(=O)c3c(C)c(Cl)c(C)cc3o2)cc1OC
Rattus norvegicus [1]
  inhibition in vivo at 20 mg/kg: 22.9%
Rattus norvegicus [2]
  inhibition in vivo at 20 mg/kg: 43.1%

## COc1cc(-c2cc(=O)c3c(C)c(Cl)c(C)cc3o2)cc(OC)c1OC
Rattus norvegicus [3]
  UI: 0 mm
Rattus norvegicus [1]
  inhibition in vivo at 20 mg/kg: 73.3%
Rattus norvegicus [2]
  inhibition in vivo at 20 mg/kg: 68.4%

## COc1ccc2c(c1)c(CC(=O)O)c(C)n2C(=O)c1ccc(Cl)cc1 [INDOMETHACIN]
Rattus norvegicus [3]
  UI: 1.5 mm
Rattus norvegicus [1]
  inhibition in vivo at 20 mg/kg: 86%
Rattus norvegicus [2]
  inhibition in vivo at 20 mg/kg: 67%
